Laboratory results: patent US8691864B2, “Agents useful for reducing amyloid precursor protein and treating dementia and methods of use thereof” (priority 2000, dated 2014)

Key:
total Aβ peptide = assay: total Aβ ELISA in SK-N-SH conditioned medium; assay type: cell-based, human; conditions: 50 μM
Procedure: Total Aβ peptide levels in SH-SY-SY and SK-N-SH cultured samples were assayed by a sensitive ELISA (Suzuki et al., 1994). For total Aβ measurements in conditioned medium, the rabbit polyclonal antibody #3160 (1-40 residues of Aβ) was used as a capture antibody for all species of Aβ peptide (Aβ1-40 and Aβ1-42) while monoclonal antibody 4G8 (17-25 residues of Aβ) was used to detect Aβ peptide levels, and the values were expressed as the mean of six independent assays.
Likewise, (+)-phenserine reduced BAPP protein levels and total Aβ peptide levels at 16 hours (FIG. 5).

βAPP = βAPP levels in brain cortex and CSF of transgenic mice; assay type: in vivo; conditions: 2.5 mg/kg i.p., once daily for 3 weeks
Aβ1-40 = Aβ1-40 levels in cerebral cortex of transgenic mice, ELISA; assay type: in vivo; conditions: formic acid extraction, 3 weeks daily
Procedure: (§1) Greater reductions could be achieved, but, as previously reported, doses of >5 mg/kg produce cholinergic side effects for the (−)-enantiomer but not for the (+)-enantiomer.
(§2) Samples of cerebral cortex from the transgenic mice then were analyzed for β amyloid peptide (Aβ) levels. Specifically, Aβ1-40 and Aβ1-42 levels, following formic acid extraction, were determined by ELISA assay (Suzuki et al., 1994).

Aβ1-42 = Aβ1-42 levels in cerebral cortex of transgenic mice, ELISA; assay type: in vivo; conditions: formic acid extraction, 3 weeks daily
Procedure: as §1, §2

APP = assay: rate of APP synthesis in SH-SY5Y cells (35S labelling, immunoprecipitation); assay type: cell-based, human; conditions: 10 μM, 16 hours
Procedure: 8×10^6 SHSY-5Y cells were plated on 100 mm dishes with DMEM containing 10% FBS. After 36 hours, the culture medium was replaced with DMEM containing 0.5% FBS. The cells were incubated with low serum medium for 1 hour. Thereafter, the medium was replaced with fresh low serum medium with and without 10 μM of phenserine for 16 hours.
After treatment with methionine and cystine free medium, 2 ml of ^35S-labeled DMEM ([…]) with and without phenserine (10 μM) were added and incubated for 10 minutes. Thereafter, the labeled medium was carefully removed and the cells were suspended in lysis buffer containing with protease inhibitors and frozen at −80° C. for use in the immunoprecipitation assay.
APP protein was immunoprecipitated from 300 μig of total protein in each sample using the polyclonal antibody O443, which recognizes a 20 amino acid sequence in the carboxy terminal of APP, and protein A/G resin overnight at 4° C. Immunoprecipitated APP was eluted from the protein AJG resin with 30 μl of elution buffer (10% beta-mercaptoethanol). The samples were loaded onto 10% trys-glycine 10 gels, and the proteins were separated at 150 V for 90 min. The gels were fixed and dried at 80° C. for 60 min. The dried gels were exposed to Phosphor Screen (PACKARD Instrument Company, Inc., Meriden, Conn.) overnight and the βAPP signals were quantitated on a phosphor imager. […]

CN1CC[C@@]2(C)c3cc(OC(=O)Nc4ccccc4)ccc3N(C)[C@@H]12 [(−)-phenserine]
reduction of total Aβ versus untreated controls (total Aβ peptide; 8 hours): 14%
reduction of total Aβ versus untreated controls (total Aβ peptide; 16 hours): 31%
reduction of βAPP levels in CSF (βAPP): 55%
reduction of Aβ1-40 levels (Aβ1-40): 68%
reduction of Aβ1-42 levels (Aβ1-42): 53%
reduction of βAPP synthesis (APP): 52%
